Our source for the inhibition and IC50 values is patent US11925629B2, “Heterocyclic inhibitors of ERK1 and ERK2 and their use in the treatment of cancer” (Asana Biosciences, LLC, priority 2015, dated 2024).

Each structure is given as a SMILES string. Like-named read-outs stand apart in the source and are kept apart here.

In assay [1] the test system is phospho-RSK (the downstream target of ERK1/2). The assay can be described thus: Pharmacodynamic assay, phospho-RSK in A375 tumor samples. It is filed as in vivo, mice. The conditions noted are these: Mus musculus, A-375; A375 tumor samples harvested at 1 h after dosing at 50 mg/kg PO, compared to vehicle control. On the procedure: Foxn1 nu/nu strain of female mice (obtained from Charles River Laboratories, USA), 8-10 weeks of age, body weight range 23-25 g, were used for the tumor xenograft efficacy studies. Human cancer cell lines (such as melanoma A375, colorectal HT29, pancreatic BxPC3, colorectal HCT116, and lung A549) were first grown in vitro, and then about five million (5×10^6) of these cells in 100 μL of serum free medium were mixed with an equal amount of matrigel, and the entire mixture was injected subcutaneously at the right flank region of mice. The tumors were measured with Vernier calipers periodically after the first week of injection. When the tumor volume reached 120-150 mm^3 (about 3-4 weeks after injection) the animals were randomized into different groups so that their tumor volume was approximately the same in all groups.
For PO dosing, the compounds were prepared in a formulation containing 0.5% Methyl cellulose and 0.01% Tween 80. For IV, SC, or IP dosing, the compounds were prepared in 6% solutol-ethanol (1:1), 6% DMSO and 88% saline. Animals were dosed with compounds prepared in specific formulations via PO, IP or SC route either QD or BID at the required doses. Tumors size and body weights were measured twice or thrice in a week. Tumors were harvested at the end of the study after euthanizing the animals according to approved protocols. […]

Assay [2] concerns HCT116 (colorectal carcinoma, K Ras G13D) cells. The assay can be described thus: Cell proliferation (Alamar Blue) assay, HCT116. It is filed as cell-based, human. The conditions noted are these: Homo sapiens, HCT-116, HCT116 cells. Summed up: (§1)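 After overnight plating (16-24 h), cells were treated for 72 h with compound dilutions spanning roughly 0.0005 to 10 uM. Proliferation was measured by Alamar Blue fluorescence and IC50 values derived from variable-slope dose-response curves.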

In assay [3] the test system is HT-29 (colorectal carcinoma, B-RafV600E) cells. The assay can be described thus: Cell proliferation (Alamar Blue) assay, HT-29. The assay is classed as cell-based, human. The note with it: Homo sapiens, HT-29, HT29 cells. The essentials: as §1
(The colour change of resazurin is a common sign of viable cells or microbes.)

The next assay concerns the target T1, ERK1 (Homo sapiens, UniProt P27361).
T1 construct: purchased Jubilant Biosys
The assay can be described thus: ERK1 HTRF (biochemical) assay. On the procedure:
(§2) ERK1 and ERK2 HTRF (Biochemical) Assays
These assays employed a homogeneous time resolved fluorescence (HTRF) technique. […] The plate was incubated at room temperature for 60 min with shaking. […] The IC50 values (half maximal inhibitory concentration values) were subsequently determined using a sigmoidal dose-response curve (variable slope) in GraphPad Prism® 5 software.
A general note: In TR-FRET formats the signal depends on donor and acceptor labels being close together.

Assay [4] concerns phosphorylation of RSK1(S380) (the downstream target of ERK1/2). Nature of the assay: Phospho-RSK1(S380) ELISA assay in HT-29 cells. The assay is classed as cell-based, human. The conditions noted are these: Homo sapiens, HT-29, HT29 cells, read-out: Mechanistic Cell Assay RSK1 Phos HT29 IC50. The essentials:
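IC50 values derive from a variable-slope sigmoidal fit of sandwich-ELISA signal (450 nm) for RSK1 Ser380 phosphorylation. The cells were B-RafV600E HT-29 colorectal line, exposed to serially diluted compound for 2 h after overnight seeding, then lysed at 4° C.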
A general note: An ELISA detects its analyte on a solid surface through an enzyme-linked reagent.

For another assay, the target named is T2, ERK2 (Homo sapiens, UniProt P28482).
T2 construct: purchased Jubilant Biosys
The assay can be described thus: ERK2 HTRF (biochemical) assay. On the procedure: as §2
These assays employed a homogeneous time resolved fluorescence (HTRF) technique. The compounds were serially diluted by half-log with concentrations ranging from 0.0005 to 10 uM in the assay buffer (50 mM Tris pH=7.5, 1 mM EGTA, 2 mM DTT, 10 mM MgCl2, 0.100 Tween-20) and 20 uL of substrate-ATP mix [1 uM Biotin-LC-Myelin Basic Protein (MBP) derivatized Peptide (Anaspec)-24 uM ATP (Sigma)] was added to each well of the assay plate. Then 10 uL of enzyme mix [25 nM ERK1 or ERK2 (Jubilant Biosys) in assay buffer] was added to each well. The plate was incubated at room temperature for 60 min with shaking. The HTRF mix [625 nM LANCER Ultra Europium-anti-phospho-MBP (Perkin Elmer) and 2 nM Phycolink® Streptavidin-Allophycocyanin (SA-APC) (Prozyme) in HTRF buffer (50 mM Tris-HCl pH=7.5, 100 mM NaCl, 0.1% BSA, 0.05% Tween20, 0.5 mM EDTA)] was prepared and 75 uL of this mix was added to the HTRF plate. After incubation for 60 min at room temperature, 10 uL of the reaction mixture was transferred to the HTRF assay plate and incubated for 45 min at room temperature with shaking. Plate was read using Pherastar in HTRF mode (excitation 337 nm, emission 665 & 620 nm). The IC50 values (half maximal inhibitory concentration values) were subsequently determined using a sigmoidal dose-response curve (variable slope) in GraphPad Prism® 5 software.

T2 sequence (P28482 whole entry): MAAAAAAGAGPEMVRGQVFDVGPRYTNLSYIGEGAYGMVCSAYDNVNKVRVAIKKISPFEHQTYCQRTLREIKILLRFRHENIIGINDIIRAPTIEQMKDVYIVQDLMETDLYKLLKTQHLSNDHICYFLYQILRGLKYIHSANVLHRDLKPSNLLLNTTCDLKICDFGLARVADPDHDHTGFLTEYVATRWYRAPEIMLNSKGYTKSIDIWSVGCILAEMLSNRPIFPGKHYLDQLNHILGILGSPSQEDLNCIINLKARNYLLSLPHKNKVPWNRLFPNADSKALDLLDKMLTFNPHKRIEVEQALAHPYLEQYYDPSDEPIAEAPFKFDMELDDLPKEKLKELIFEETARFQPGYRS
T1 sequence (P27361 whole entry): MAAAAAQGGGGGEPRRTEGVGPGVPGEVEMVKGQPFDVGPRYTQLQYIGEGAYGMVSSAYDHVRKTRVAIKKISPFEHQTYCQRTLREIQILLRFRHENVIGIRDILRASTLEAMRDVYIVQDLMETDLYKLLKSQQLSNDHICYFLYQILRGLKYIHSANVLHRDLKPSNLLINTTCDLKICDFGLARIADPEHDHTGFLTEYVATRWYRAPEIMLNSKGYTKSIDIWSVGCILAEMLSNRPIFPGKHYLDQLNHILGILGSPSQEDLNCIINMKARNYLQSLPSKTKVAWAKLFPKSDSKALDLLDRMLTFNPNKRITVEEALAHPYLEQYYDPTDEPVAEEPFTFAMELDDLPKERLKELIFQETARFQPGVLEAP

In general, inhibition refers to the relative decrease from the control value, in per cent. As to `Cc1cnc(NC2CCOCC2)nc1-n1cnc(C(=O)NC(CO)c2cccc(Cl)c2)c1` (centres unmarked) [Example 201], in assay [1], the inhibition at 50 mg/kg was roughly 66%.

Turning to `Cc1cnc(NC2CCOCC2)nc1-n1cnc(C(=O)N[C@H](CO)c2cccc(Cl)c2)c1` [Example 211], the inhibition at 50 mg/kg in assay [1] is roughly 84%.

As a reminder, the IC50 is the midpoint of a concentration-inhibition curve. Regarding `Cc1cnc(NC2CCOCC2)nc1-n1cnc(C(=O)N[C@H](CN)c2cc(F)cc(Cl)c2)c1` [Compound #275, (S)—N-(2-Amino-1-(3-chloro-5-fluorophenyl)ethyl)-1-(5-methyl-2-((tetrahydro-2H-pyran-4-yl)amino)pyrimidin-4-yl)-1H-imidazole-4-carboxamide], the IC50 in assay [2] is no more than 100 nM; in assay [3], no more than 100 nM; on ERK1 (HTRF biochemical assay) it was less than 50 nM; in assay [4] (phospho-RSK1(S380)), no more than 100 nM; on ERK2 (HTRF biochemical assay), no more than 50 nM.

Take `Cc1cnc(NC2CCOCC2)nc1-n1cnc(C(=O)NCc2cc(F)cc(Cl)c2CO)c1` [Compound #297, N-(3-Chloro-5-fluoro-2-(hydroxymethyl)benzyl)-1-(5-methyl-2-((tetrahydro-2H-pyran-4-yl)amino)pyrimidin-4-yl)-1H-imidazole-4-carboxamide]: the IC50 in assay [2] was 100 to 250 nM; in assay [3] it was no more than 100 nM; at ERK1 (HTRF biochemical assay), less than 50 nM; in assay [4] (phospho-RSK1(S380)) it was 250 to 500 nM; against ERK2 (HTRF biochemical assay) it was no more than 50 nM.

Regarding `Cc1cnc(N[C@H]2CCOC2)nc1-n1cnc(C(=O)NCc2cccc(Cl)c2Cl)c1` [Example 319, (S)-N-(2,3-dichlorobenzyl)-1-(5-methyl-2-((tetrahydrofuran-3-yl)amino)pyrimidin-4-yl)-1H-imidazole-4-carboxamide], the concentration for half-maximal inhibition (IC50) in assay [2] was greater than 2500 nM; in assay [3], greater than 2500 nM; against ERK1 (HTRF), less than 50 nM; in assay [4], 500 to 2500 nM; at ERK2 (HTRF) it was no more than 50 nM.

For `Cc1cccc(CNC(=O)c2cn(-c3nc(N[C@H]4CCOC4)ncc3C)cn2)c1` [Example 323, (S)-1-(5-methyl-2-((tetrahydrofuran-3-yl)amino)pyrimidin-4-yl)-N-(3-methylbenzyl)-1H-imidazole-4-carboxamide], the IC50 was greater than 2500 nM in assay [2]; greater than 2500 nM in assay [3]; less than 50 nM on ERK1 (HTRF); 250 to 500 nM in assay [4]; no more than 50 nM at ERK2 (HTRF).

On to `Cc1cnc(N[C@H]2CCOC2)nc1-n1cnc(C(=O)NCc2ccc(Cl)c(F)c2)c1` [Example 324, (S)-N-(4-chloro-3-fluorobenzyl)-1-(5-methyl-2-((tetrahydrofuran-3-yl)amino)pyrimidin-4-yl)-1H-imidazole-4-carboxamide], for which the concentration for half-maximal inhibition (IC50) in assay [2] was greater than 2500 nM; in assay [3], greater than 2500 nM; against ERK1 (HTRF), less than 50 nM; in assay [4], 500 to 2500 nM; at ERK2 (HTRF), no more than 50 nM.

As for `Cc1cnc(NC2CC(F)(F)C2)nc1-n1cnc(C(=O)N[C@H](CN)c2cccc(Cl)c2)c1` [Compound #259, (S)—N-(2-Amino-1-(3-chlorophenyl)ethyl)-1-(2-((3,3-difluorocyclobutyl)amino)-5-methylpyrimidin-4-yl)-1H-imidazole-4-carboxamide], the IC50 is no more than 100 nM in assay [2]; 100 to 250 nM in assay [3]; less than 50 nM against ERK1 (HTRF biochemical assay); 100 to 250 nM in assay [4] (phospho-RSK1(S380)); no more than 50 nM against ERK2 (HTRF biochemical assay).

As for `Cc1cnc(Nc2ccccn2)cc1-n1ccc(C(=O)NC(CO)c2ccccc2)c1` (centres unmarked) [Example 149, N-(2-hydroxy-1-phenylethyl)-1-(5-methyl-2-(pyridin-2-ylamino)pyridin-4-yl)-1H-pyrrole-3-carboxamide], the IC50 was greater than 2500 nM in assay [2]; greater than 2500 nM in assay [3]; 50 to 100 nM against ERK1 (HTRF biochemical assay); greater than 2500 nM in assay [4] (phospho-RSK1(S380)); no more than 50 nM against ERK2 (HTRF biochemical assay).

Regarding `Cc1cnc(NC2CCOCC2)nc1-n1cnc(C(=O)NC(CN)c2cc(F)cc(Cl)c2)c1` (centres unmarked) [Example 236, N-(2-amino-1-(3-chloro-5-fluorophenyl)ethyl)-1-(5-methyl-2-((tetrahydro-2H-pyran-4-yl)amino)pyrimidin-4-yl)-1H-imidazole-4-carboxamide], the 50% inhibitory concentration (IC50) in assay [2] was no more than 100 nM; in assay [3] it was no more than 100 nM; against ERK1 (HTRF biochemical assay), less than 50 nM; in assay [4] (phospho-RSK1(S380)) it was no more than 100 nM; against ERK2 (HTRF biochemical assay), no more than 50 nM.

As to `Cc1cnc(N[C@H]2CCOC2)nc1-n1cnc(C(=O)NCc2cccc(Cl)c2F)c1` [Example 315, (S)-N-(3-chloro-2-fluorobenzyl)-1-(5-methyl-2-((tetrahydrofuran-3-yl)amino)pyrimidin-4-yl)-1H-imidazole-4-carboxamide], the IC50 was greater than 2500 nM in assay [2]; greater than 2500 nM in assay [3]; less than 50 nM against ERK1 (HTRF); greater than 2500 nM in assay [4]; no more than 50 nM on ERK2 (HTRF).

With `Cc1cnc(N[C@H]2CCOC2)nc1-n1cnc(C(=O)NCc2c(F)cccc2F)c1` [Example 316, (S)-N-(2,6-difluorobenzyl)-1-(5-methyl-2-((tetrahydrofuran-3-yl)amino)pyrimidin-4-yl)-1H-imidazole-4-carboxamide], the IC50 was greater than 2500 nM in assay [2]; greater than 2500 nM in assay [3]; 500 to 2500 nM against ERK1 (HTRF); greater than 2500 nM in assay [4]; 100 to 500 nM at ERK2 (HTRF).

In the case of `Cc1cnc(N[C@H]2CCOC2)nc1-n1cnc(C(=O)NCc2cccc(C(C)(C)C)c2)c1` [Example 327, (S)-1-(5-methyl-2-((tetrahydrofuran-3-yl)amino)pyrimidin-4-yl)-N-(3-tert-butylbenzyl)-1H-imidazole-4-carboxamide], the half-inhibitory concentration (IC50) was greater than 2500 nM in assay [2]; 500 to 2500 nM in assay [3]; less than 50 nM on ERK1 (HTRF); 100 to 250 nM in assay [4]; no more than 50 nM against ERK2 (HTRF).

On to `Cc1cnc(N[C@H]2CCOC2)nc1-n1cnc(C(=O)NC(CN)c2cc(F)cc(Cl)c2)c1` (stereo partly drawn) [Example 282, N-(2-amino-1-(3-chloro-5-fluorophenyl)ethyl)-1-(5-methyl-2-(((S)-tetrahydrofuran-3-yl)amino)pyrimidin-4-yl)-1H-imidazole-4-carboxamide], for which the IC50 in assay [2] is no more than 100 nM; in assay [3], no more than 100 nM; on ERK1 (HTRF biochemical assay), less than 50 nM; in assay [4] (phospho-RSK1(S380)), no more than 100 nM; at ERK2 (HTRF biochemical assay), no more than 50 nM.
